According to US6541492B1, “Thiazole derivatives as PPAR gamma ligands” (SmithKline Beecham Corporation, priority 1999, dated 2003):

How the values were obtained:
[1] = tested on: C3H10T1/2 clone 8 murine fibroblasts; experiment: Osteoblast differentiation assay (alkaline phosphatase activity); format: cell-based
Description: C3H10T1/2 clone 8 murine fibroblasts (American Type Culture Collection) below passage 22 were maintained in Dulbecco's modified Eagle's medium (Life Technologies, Inc.) supplemented with 10% fetal calf serum and 100 units/mL penicillin G and 100 microgram/mL streptomycin. One day after passage into 96-well microtiter plates (12.5×10^3 cells/cm^2), the cells were treated with 625 nanomolar all-trans retinoic acid, 1 micromolar rosiglitazone and 1 micromolar insulin (Sigma, St. Louis, Mo.). Vehicle or test compounds, which had been solublized to 10 mM in DMSO and then serially diluted from 2e-5 M to 4e-8 M into medium, were added. After 7 days, alkaline phosphatase activity, a surrogate measure for osteogenesis, was determined using Sigma-Fast pNPP substrate (N-2770) according to the manufacturer's specifications (Sigma, St. Louis, Mo.) (see Paulik, M. A. and Lenhard, J. M., Cell Tissue Res., (1997), Vol. 290, pp 79-87). The substrate (50 microliters/well) was incubated with the cells at 37° C. for 10 min and the absorbance read at 405 nm. The % maximum stimulation of alkaline phosphatase activity was calculated relative to cells treated with 10 micromolar all-trans retinoic acid.

C57BL/KsJ db/db mice = experiment: In vivo assay in db/db mice; settings: male db/db mice, 50 mg/kg oral once daily, mean ± standard error
Description: Age and weight matched male C57BL/KsJ db/db mice (Jackson Labs, Bar Harbor, Me.) were housed 5 animals/cage at 72° F. and 50% relative humidity with a 12 h light and dark cycle, and fed chow diet (NIH R&M/Auto 6F-Ovals 5K67, PMI Feeds® Inc., Richmond, Ind.). Animals starting at 6 weeks of age were orally gavaged once daily (8:00-9:00 AM) with TPGS/PG (25/75) or 50 mg/kg the compound of Example 4 in TPGS/PG (25/75). After 2 weeks of dosing, the animals were anesthetized with isofluorane, blood was drawn by cardiac puncture, and non-fasting measurements of glucose, insulin, and glycosylated hemoglobin (GHB) were obtained. Blood glucose was determined using an automated chemistry analyzer (Technicon Axon). GHB measurements were performed using a Columnmate Analyzer (Helena Instrument). Insulin concentrations in serum were measured by chemiluminescence using an Origen Analyzer (Igen Inc.). Body weights were recorded at the beginning and end of the study. All data was calculated as the mean and standard error from experiments performed on ≧9 animals per treatment group.

CCCCCC[C@@H]1S[C@@H](CC(=O)N(CCCC)CCCC)C(=O)N1CCCCc1ccc(C(=O)O)cc1 (relative stereo) [Example 4, (2S*,5S*)-4-(4-(4-Carboxyphenyl)butyl)-2-hexyl-4-oxo-5-thiazolidine N,N-Dibutylacetamide]
% Stimulation ([1]; % maximum stimulation of alkaline phosphatase activity relative to cells treated with 10 micromolar all-trans retinoic acid): 71% | pEC50 ([1]; alkaline phosphatase activity after 7 days, with 625 nanomolar all-trans retinoic acid, 1 micromolar rosiglitazone, 1 micromolar insulin): 5.7 | GBH (C57BL/KsJ db/db mice; glycosylated hemoglobin, 2 weeks): 6.6 ± 0.3% | Glucose (C57BL/KsJ db/db mice; 2 weeks, non-fasting blood): 380 ± 30 mg/dL | Body Weight Change (C57BL/KsJ db/db mice; beginning to end of 2 week study): 1.1 ± 0.5 g
